One may read the IC50 as the concentration needed to halve the response being measured. The low end stands for greater potency in that assay, the high end for weaker potency in that assay.

Consider four molecules from patent US10045981B2, “Selective kinase inhibitors” (JAKPHARM, LLC, priority 2015, dated 2018).

Structures are written as SMILES. Where two headings read alike, the source gives them in different places.

For one data set, the target named is EGFR (d746-750/T790M) (Homo sapiens, UniProt P00533, DEL746-750/T790M). The experiment in a line: Exemplary Kinase Panel Analysis. It is filed as biochemical. To be noted: 10 concentrations, 3-fold serial dilutions starting at 5 μM, duplicate.
Sequence of EGFR (d746-750/T790M) (P00533 with tags, fused parts or gaps DEL746-750/T790M limits assumed): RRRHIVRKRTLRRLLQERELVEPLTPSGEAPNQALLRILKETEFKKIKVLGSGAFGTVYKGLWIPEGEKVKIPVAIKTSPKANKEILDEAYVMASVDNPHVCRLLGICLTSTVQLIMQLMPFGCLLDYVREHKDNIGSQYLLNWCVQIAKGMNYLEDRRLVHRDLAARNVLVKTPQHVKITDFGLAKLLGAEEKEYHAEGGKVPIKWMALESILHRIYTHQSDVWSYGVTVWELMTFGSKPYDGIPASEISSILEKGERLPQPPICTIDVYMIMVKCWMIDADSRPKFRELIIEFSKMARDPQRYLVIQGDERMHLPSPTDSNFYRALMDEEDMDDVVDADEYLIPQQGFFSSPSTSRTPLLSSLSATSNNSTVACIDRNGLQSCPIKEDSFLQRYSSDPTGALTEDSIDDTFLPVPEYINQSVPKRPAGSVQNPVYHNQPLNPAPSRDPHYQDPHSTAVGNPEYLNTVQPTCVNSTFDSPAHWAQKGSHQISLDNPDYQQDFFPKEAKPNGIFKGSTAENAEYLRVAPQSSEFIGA
The nature of data set [1]: Human Liver Microsomes stability. It is filed as in vitro ADME. To be noted: read-out: Human Liver Microsomes t½.
Another data set has as its target EGFR (d746-750) (Homo sapiens, UniProt P00533, DEL746-750). As to the kind of experiment: Exemplary Kinase Panel Analysis. To be noted: 10 concentrations, 3-fold serial dilutions starting at 5 μM, duplicate. Format: biochemical.
A further data set has as its target EGFR (Homo sapiens, UniProt P00533). As to the kind of experiment: Exemplary Kinase Panel Analysis. It is filed as biochemical. To be noted: 10 concentrations, 3-fold serial dilutions starting at 5 μM, duplicate. Here is the method:
Kinase Panel: These compounds were tested against 439 kinases. […]. […] The results are presented in Table 2 below, where empty cells indicate no inhibition or compound activity that could not be fit to an IC50 curve.

A further data set addresses EGFR (L861Q) (Homo sapiens, UniProt P00533, L861Q). The experiment in a line: Exemplary Kinase Panel Analysis. It is filed as biochemical. To be noted: 10 concentrations, 3-fold serial dilutions starting at 5 μM, duplicate.

Sequence of EGFR (L861Q) (P00533 25-1210 L861Q): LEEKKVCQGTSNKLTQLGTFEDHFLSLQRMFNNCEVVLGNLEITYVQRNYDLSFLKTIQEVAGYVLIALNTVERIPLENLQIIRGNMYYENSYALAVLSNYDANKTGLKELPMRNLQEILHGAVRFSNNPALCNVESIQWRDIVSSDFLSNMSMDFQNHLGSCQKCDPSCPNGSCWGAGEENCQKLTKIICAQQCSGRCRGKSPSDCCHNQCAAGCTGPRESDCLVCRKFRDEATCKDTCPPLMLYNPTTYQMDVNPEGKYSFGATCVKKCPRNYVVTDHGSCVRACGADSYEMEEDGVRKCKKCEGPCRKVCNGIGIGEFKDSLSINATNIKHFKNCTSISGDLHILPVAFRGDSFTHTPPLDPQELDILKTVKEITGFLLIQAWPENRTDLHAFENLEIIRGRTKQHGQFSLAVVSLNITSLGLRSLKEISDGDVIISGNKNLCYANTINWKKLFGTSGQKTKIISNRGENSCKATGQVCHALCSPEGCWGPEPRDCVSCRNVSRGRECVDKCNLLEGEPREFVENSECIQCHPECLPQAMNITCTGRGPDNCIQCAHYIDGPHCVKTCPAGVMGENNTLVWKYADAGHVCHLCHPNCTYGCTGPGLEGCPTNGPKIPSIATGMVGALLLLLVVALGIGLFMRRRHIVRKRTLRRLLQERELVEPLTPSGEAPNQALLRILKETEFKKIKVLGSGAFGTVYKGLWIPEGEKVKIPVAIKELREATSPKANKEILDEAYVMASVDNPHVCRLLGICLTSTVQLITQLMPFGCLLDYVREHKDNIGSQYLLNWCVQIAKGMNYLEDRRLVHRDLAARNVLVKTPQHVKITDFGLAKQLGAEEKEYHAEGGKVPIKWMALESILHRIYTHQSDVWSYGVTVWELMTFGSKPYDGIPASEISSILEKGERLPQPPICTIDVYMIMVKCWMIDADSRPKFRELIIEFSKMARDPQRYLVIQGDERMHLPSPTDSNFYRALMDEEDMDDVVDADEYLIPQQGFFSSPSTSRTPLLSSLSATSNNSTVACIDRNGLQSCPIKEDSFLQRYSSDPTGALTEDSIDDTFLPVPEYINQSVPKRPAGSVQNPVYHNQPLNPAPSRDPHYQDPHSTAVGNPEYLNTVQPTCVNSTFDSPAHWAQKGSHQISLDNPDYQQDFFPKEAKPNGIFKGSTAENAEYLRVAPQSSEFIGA
Sequence of EGFR (P00533 25-1210): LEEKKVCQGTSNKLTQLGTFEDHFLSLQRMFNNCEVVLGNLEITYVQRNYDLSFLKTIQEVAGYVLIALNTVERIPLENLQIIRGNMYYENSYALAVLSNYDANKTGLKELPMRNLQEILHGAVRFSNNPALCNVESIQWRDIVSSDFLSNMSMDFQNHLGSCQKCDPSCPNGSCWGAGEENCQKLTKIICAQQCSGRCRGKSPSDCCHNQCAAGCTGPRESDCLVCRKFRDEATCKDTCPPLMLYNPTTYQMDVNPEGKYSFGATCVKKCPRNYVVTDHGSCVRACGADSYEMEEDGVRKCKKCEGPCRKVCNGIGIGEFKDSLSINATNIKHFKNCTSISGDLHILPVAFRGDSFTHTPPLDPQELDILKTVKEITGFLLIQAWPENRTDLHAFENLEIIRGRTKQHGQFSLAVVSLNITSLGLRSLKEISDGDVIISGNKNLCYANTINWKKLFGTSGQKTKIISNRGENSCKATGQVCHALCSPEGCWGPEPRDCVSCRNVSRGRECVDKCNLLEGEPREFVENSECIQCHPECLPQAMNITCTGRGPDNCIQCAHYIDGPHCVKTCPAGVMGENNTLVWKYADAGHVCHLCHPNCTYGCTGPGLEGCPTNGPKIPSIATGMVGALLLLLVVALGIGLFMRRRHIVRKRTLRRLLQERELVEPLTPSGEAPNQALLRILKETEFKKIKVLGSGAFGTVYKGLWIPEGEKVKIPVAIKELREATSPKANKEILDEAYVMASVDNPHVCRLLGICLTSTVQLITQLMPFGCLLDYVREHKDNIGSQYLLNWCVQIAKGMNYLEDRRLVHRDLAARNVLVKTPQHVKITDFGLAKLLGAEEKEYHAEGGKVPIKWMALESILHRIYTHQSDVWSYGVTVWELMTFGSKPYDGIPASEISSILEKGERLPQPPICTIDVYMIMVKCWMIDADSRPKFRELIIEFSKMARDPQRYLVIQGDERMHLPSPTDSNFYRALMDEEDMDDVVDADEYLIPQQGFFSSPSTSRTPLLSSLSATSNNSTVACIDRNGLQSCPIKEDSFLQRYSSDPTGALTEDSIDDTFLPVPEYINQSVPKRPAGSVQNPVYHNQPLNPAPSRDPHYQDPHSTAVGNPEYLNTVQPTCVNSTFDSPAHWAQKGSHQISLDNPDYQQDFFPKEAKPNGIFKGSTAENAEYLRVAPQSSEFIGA
Sequence of EGFR (d746-750) (P00533 with tags, fused parts or gaps DEL746-750 limits assumed): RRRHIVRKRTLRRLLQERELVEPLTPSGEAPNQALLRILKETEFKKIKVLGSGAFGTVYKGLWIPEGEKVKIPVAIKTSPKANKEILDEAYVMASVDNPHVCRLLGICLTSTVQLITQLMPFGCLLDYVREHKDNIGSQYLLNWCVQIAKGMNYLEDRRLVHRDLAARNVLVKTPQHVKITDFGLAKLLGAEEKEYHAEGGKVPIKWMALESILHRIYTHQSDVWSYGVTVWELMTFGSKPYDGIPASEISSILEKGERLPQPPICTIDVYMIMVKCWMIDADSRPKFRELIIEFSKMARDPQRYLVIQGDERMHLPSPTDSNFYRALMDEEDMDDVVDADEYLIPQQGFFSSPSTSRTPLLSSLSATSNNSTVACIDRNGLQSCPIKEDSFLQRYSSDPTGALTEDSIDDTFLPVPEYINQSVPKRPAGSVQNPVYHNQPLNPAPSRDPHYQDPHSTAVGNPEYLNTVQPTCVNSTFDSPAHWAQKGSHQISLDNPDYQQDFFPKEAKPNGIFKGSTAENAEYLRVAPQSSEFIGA

`C=CC(=O)Nc1cc(NS(C)(=O)=O)cc(-c2cnc3ccccc3n2)c1` [Compound 3] registered an IC50 against EGFR (d746-750/T790M) of 996 nM. Further, the half-life stood at 0.967 h in data set [1] (first session (before /)) and 1 h in data set [1] (second session (after /)).

As for `C=CC(=O)Nc1cc(CN2CCNC(=O)C2)cc(-c2cnc3ccccc3n2)c1` [Compound 1b, N-[3-[(3-oxopiperazin-1-yl)methyl]-5-quinoxalin-2-yl-phenyl] prop-2-enamide], the IC50 at EGFR (d746-750) turned out to be 2290 nM; against EGFR (d746-750/T790M), 560 nM; against EGFR, 2860 nM; at EGFR (L861Q) it was 2650 nM. The half-life in data set [1] (first session (before /)) was 1.25 h; in data set [1] (second session (after /)), greater than 1 h.

Regarding `C=CC(=O)Nc1cc(CC(=O)OC)cc(-c2cnc3ccccc3n2)c1` [Compound 2], inhibition against EGFR (d746-750/T790M) was half-maximal at 299 nM (IC50). The half-life in data set [1] (first session (before /)) is greater than 16.7 h; in data set [1] (second session (after /)), 0.0917 h.

For the molecule `C=CC(=O)Nc1cc(CN2CCN(C)C(=O)C2)cc(-c2cnc3ccccc3n2)c1` [Compound 1a], the IC50 at EGFR (d746-750) is 345 nM; at EGFR (d746-750/T790M), 87.9 nM; against EGFR, 370 nM; on EGFR (L861Q) it was 352 nM. The half-life in data set [1] (first session (before /)) worked out at 1.07 h; in data set [1] (second session (after /)), 1 h.
